Assay results from patent US6432692B1, “Sensitive bioassay for detecting agonists of the aryl hydrocarbon receptor” (Wisconsin Alumni Research Foundation, priority 1999, dated 2002).

How the values were obtained:
AHR = settings: mouse hepatoma cells overexpressing ARA9; cited from earlier work
GR-LexA chimera = GR-LexA chimera β-galactosidase reporter dose-response in yeast strain L40; format: cell-based
Description: Pharmacology in yeast: AHR dose-response curves were performed in the S. cerevisiae strain L40 as described previously (Carver et al., 1994, supra). Two days after plasmid transformation, the colonies were replica plated on media with various concentrations of βNF spread on the surface. The replica plates were then incubated for two days at 30° C. For each dose of βNF, three colonies were suspended in 100 μl of Z-buffer (60 mM Na2HPO4, 40 mM NaH2PO4, 10 mM KCl, 1 MM MgSO4, 35 mM 2-mercaptoethanol) and cell density was estimated by reading the A600. Twenty microliters of the remaining cell suspension was added to 130 μl Z-buffer, 25 μl 0.1%SDS (w/v), 25 μl CHCl3 and disrupted at high speed for 10 sec. Thirty microliters of a 4 mg/ml ONPG solution was added and the mixture incubated for 2-5 min at 30° C. The reaction was stopped by adding 75 μl of 1M NaCO3, the cell debris removed by centrifugation and the A420 was determined. Beta-galactosidase units were determined using the following formula (A420/(A600 of 1/10 dilution of cells×volume of culture×time of incubation))×1,000. […]
Next, the specificity of ARA3 for the AHR signaling pathway in yeast was examined. […] In this system, GR is expressed as a LexA fusion protein in which the LexA binding domain replaces the GR DNA binding domain.

LexA-AHR chimera = molecular target: T1, LexA-AHR chimera (Mus musculus, UniProt P30561); experiment: LexA-AHR chimera / LexA-operator β-galactosidase reporter dose-response in yeast strain L40; format: cell-based
T1 construct: expressed in transfected cells; host or cells: Saccharomyces cerevisiae strain L40; the other entry of the earlier key: lexA (P0A7C2, LexA repressor)
Description: Pharmacology in yeast: AHR dose-response curves were performed in the S. cerevisiae strain L40 as described previously (Carver et al., 1994, supra). Two days after plasmid transformation, the colonies were replica plated on media with various concentrations of βNF spread on the surface. The replica plates were then incubated for two days at 30° C. For each dose of βNF, three colonies were suspended in 100 μl of Z-buffer (60 mM Na2HPO4, 40 mM NaH2PO4, 10 mM KCl, 1 MM MgSO4, 35 mM 2-mercaptoethanol) and cell density was estimated by reading the A600. Twenty microliters of the remaining cell suspension was added to 130 μl Z-buffer, 25 μl 0.1%SDS (w/v), 25 μl CHCl3 and disrupted at high speed for 10 sec. Thirty microliters of a 4 mg/ml ONPG solution was added and the mixture incubated for 2-5 min at 30° C. The reaction was stopped by adding 75 μl of 1M NaCO3, the cell debris removed by centrifugation and the A420 was determined. Beta-galactosidase units were determined using the following formula (A420/(A600 of 1/10 dilution of cells×volume of culture×time of incubation))×1,000. To examine expression levels of FKBP52 and ARA9 in yeast, we performed western blot analysis on cell extracts as described previously (Hogenesch et al., J. Biol. Chem. 272: 8581-8593, 1997).
ARA9 enhances ligand responsiveness of AHR: Given the sequence similarities between ARA9 and FKBP52, we asked if either protein could influence AHR signaling in vivo. To this end, we employed a LexA-AHR chimera and a LexA-operator-driven β-galactosidase reporter gene in the yeast S. cerevisiae (Carver et al., 1994, supra). Beta-napthoflavone dose-response curves were constructed for the LexA-AHR in the presence and absence of ARA9 (FIG. 5).
ARA3 was a candidate for a novel regulator of AHR signaling because of its ligand-dependent association with AHR in the two-hybrid screen. The influence of ARA3 on AHR signaling was investigated to determine modifier status. To accomplish this, an ARA3 cDNA (lacking the heterologous TAD from the two-hybrid clone, TAD-NΔ113ARA3) was expressed with LexA-NΔ166AHR in the L40 strain of yeast with increasing concentrations of β-NF.

T1 sequence (P30561 with tags, fused parts or gaps): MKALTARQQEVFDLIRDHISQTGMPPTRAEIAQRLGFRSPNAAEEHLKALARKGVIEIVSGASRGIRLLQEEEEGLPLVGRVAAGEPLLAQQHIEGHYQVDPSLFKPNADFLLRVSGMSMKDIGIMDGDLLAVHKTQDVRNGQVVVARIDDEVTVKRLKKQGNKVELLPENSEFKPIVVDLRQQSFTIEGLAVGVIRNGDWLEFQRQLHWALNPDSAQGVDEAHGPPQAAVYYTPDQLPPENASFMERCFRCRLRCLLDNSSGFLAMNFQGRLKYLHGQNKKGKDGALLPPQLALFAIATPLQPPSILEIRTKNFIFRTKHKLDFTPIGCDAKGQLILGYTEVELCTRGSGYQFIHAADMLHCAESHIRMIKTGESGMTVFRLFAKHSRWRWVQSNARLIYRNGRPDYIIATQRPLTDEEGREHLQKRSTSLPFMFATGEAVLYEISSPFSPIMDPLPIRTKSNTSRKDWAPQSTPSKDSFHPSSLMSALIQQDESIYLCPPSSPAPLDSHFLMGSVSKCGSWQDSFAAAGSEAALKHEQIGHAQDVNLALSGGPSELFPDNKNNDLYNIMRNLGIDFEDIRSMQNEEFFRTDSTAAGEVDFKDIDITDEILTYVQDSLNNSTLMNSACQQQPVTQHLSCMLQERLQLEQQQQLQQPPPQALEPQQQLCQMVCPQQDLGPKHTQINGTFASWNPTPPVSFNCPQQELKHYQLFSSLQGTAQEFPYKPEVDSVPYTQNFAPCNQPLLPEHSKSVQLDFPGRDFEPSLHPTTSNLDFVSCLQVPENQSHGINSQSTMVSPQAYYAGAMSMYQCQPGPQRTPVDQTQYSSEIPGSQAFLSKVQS
T1 sequence (P15108 whole entry partner): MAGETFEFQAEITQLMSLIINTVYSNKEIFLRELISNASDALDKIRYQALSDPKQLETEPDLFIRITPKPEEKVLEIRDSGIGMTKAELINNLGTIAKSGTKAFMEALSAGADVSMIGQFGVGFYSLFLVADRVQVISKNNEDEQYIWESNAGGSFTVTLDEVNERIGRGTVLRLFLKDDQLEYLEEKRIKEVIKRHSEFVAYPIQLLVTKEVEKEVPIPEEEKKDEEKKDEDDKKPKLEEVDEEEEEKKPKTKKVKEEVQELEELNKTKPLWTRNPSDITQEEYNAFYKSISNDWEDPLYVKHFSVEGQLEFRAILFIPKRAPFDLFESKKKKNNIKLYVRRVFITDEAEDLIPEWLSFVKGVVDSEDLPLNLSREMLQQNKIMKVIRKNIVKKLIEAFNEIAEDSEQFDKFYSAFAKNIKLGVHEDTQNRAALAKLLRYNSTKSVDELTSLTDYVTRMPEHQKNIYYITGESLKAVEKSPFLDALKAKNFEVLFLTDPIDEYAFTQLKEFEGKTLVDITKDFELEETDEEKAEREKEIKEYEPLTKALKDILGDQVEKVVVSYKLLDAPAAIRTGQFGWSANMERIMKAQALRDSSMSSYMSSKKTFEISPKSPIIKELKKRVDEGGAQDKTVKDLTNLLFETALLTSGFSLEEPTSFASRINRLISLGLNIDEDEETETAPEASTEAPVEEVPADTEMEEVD

For Clc1cc2c(cc1Cl)Oc1cc(Cl)c(Cl)cc1O2 [TCDD, 2,3,7,8-tetrachlorodibenzo-p-dioxin], the “increase of response of the system on overexpression of ARA9” value (AHR) is listed as 2-3 fold.

In the case of C[C@]12CC[C@H]3[C@@H](CCC4=CC(=O)CC[C@@]43C)[C@@H]1CC[C@@H]2C(=O)CO [deoxycorticosterone], the “alteration of signaling profile of GR by ARA3” value (GR-LexA chimera; co-expression of ARA3 with NlxC-GR) is reported as “did not alter the signaling profile” and the “alteration of response of GR-LexA chimera by ARA9 or FKBP52” value (GR-LexA chimera; co-expression of ARA9 or FKBP52) is reported as “nor could either factor alter the response”.

In the case of O=c1cc(-c2ccccc2)oc2ccc3ccccc3c12 [βNF, Beta-napthoflavone], the “increase of maximal response of AHR by ARA3” value (LexA-AHR chimera; co-expression of ARA3 (NΔ113ARA3) with LexA-NΔ166AHR) is reported as “four-fold”, the “increase of maximal response in the presence of ARA9” value (LexA-AHR chimera; co-expression of ARA9 versus absence) is reported as “approximately 2.5 fold” and the “decrease of EC50 when ARA9 was present” value (LexA-AHR chimera; co-expression of ARA9 versus absence, β-galactosidase, ONPG assay) is reported as “approximately 5 fold”. The “shift in AHR dose-response elicited by FKBP52” value (LexA-AHR chimera; co-expression of FKBP52) was “could not be elicited” and the “shift of dose-response curve by ARA3” value (LexA-AHR chimera; co-expression of NΔ113ARA3 with LexA-NΔ166AHR) was “shifted the curve to the left”.
